Results taken from patent US20250353859A1, “COMPOUNDS AS CCR6 INHIBITORS” (Hoffmann-La Roche Inc., priority 2023, published 2025).

Legend:
Assay type in all cases: cell-based
human CCR6 [1] = molecular target: T1, human CCR6 (Homo sapiens, UniProt P51684); experiment: Human CCR6-CRE reporter assay; design: The second construct contained the open reading frame of human CCR6 in the pUNO1 backbone; host or cells: 293FT cells (transient transfection with TransIT-293)
T1 sequence (P51684 1-374): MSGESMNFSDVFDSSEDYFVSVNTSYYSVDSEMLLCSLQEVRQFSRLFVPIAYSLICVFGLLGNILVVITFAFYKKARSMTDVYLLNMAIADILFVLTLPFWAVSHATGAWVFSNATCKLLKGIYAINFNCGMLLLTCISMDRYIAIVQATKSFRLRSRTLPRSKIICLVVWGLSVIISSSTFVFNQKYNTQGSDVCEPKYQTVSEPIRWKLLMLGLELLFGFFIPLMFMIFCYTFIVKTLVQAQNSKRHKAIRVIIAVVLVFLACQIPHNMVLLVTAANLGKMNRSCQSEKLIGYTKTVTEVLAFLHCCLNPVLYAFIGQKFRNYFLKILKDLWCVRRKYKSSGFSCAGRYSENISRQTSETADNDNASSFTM
Experimental: 293FT cells were transfected with 2 constructs using TransIT-293 (Mirus). The first construct (pGL4.29, Promega) expressed the luciferase reporter gene luc2P in response to the binding of cAMP-induced CREB to the CREelement in its promoter. The second construct contained the open reading frame of human CCR6 in the pUNO1 backbone under the control of an enhanced CMV promoter(InVivoGen).48 h after transfection, cells were harvested and diluted to 750,000 cells/ml in culture medium (DMEM, 10% FBS, 1× pen/strep(Gibco 15140)). Compounds were 2.5-fold serially diluted in DMSO. Further dilutions were made in assay medium (DMEM, 10% FBS, 1× pen/strep, 6 μM Forskolin, 6 nM CCL20). 4 μl of the compound solution was added to a white MW384 plate, followed by […] of the cell suspension. Final DMSO concentration in the assay was 0.1%. The MW384 plate was placed in an incubator at 37° C., 5% CO2 for 5 h. Luciferase activity was determined by addition of 24 μl of a 2.5× diluted BriteLite luciferase solution(Perkin Elmer), followed by luminescence measurement using a VICTOR Plate reader (Perkin Elmer). […] The relative Log IC50 was determined with GraphPad Prism 9 using a four-parameter dose-response model.

Human CD4+ T cells = experiment: CD4+ T cells chemotaxis assay towards CCL20; conditions: CD4+ T cell, 3 h
Description: Human CD4+ T cells were isolated from buffy coats of healthy donors using aCD4+ T Cell Isolation Kit(Miltenyi Biotec 130-096-533). Isolated T cells were stimulated overnight with anti-CD3 and anti-CD28 antibodies (Biolegend 300314/302934) in growth medium (RPMI1640, 10% heat-inactivated FBS, 1× pen/strep (Gibco 15140)). For the chemotaxis assay, Corning Transwell plates were used with a pore size of 5 m (Corning 3388). T cells were counted and diluted to 6*10^6 cells/ml in chemotaxis medium (RPMI1640, 1% BSA, pen/strep). Compounds were four-fold serially diluted in DMSO. Further dilutions were made in chemotaxis medium. Cells were incubated with test compounds for 30 min at 37° C. prior to initiation of the assay (3*10^6 cells/ml). Final DMSO concentration in the assay was 0.2%. Wells of the Transwell plates were filled with 200 μl chemotaxis medium containing 150 ng/ml CCL20 (R&D systems 360-MP). 50 μl of the cell/compound suspension was added to the inserts of the Transwell plates (150,000 cells/insert). The Transwell plates were placed in an incubator at 37° C., 5% CO2 for 3 h. After 3 h, the number of migrated cells was quantified using CellTiter Glo (Promega). Percentage inhibition values were calculated based on the low and high signal obtained with 0.2% DMSO in chemotaxis medium without and with CCL20, respectively. The relative Log IC50 was determined with GraphPad Prism 9 using a four-parameter dose-response model.

human CCR6 [2] = molecular target: T1, human CCR6; experiment: CHO-K1 CCR6 chemotaxis assay towards CCL20; conditions: CHO-K1 cells overexpressing human CCR6; 100 ng/ml CCL20, 4 h; relative Log IC50
Description: Cells overexpressing human CCR6 were used in the chemotaxis assay (DiscoverX, cAMP Hunter™ CHO-K1 CCR6 Gi Cell Line). Growth medium of these cells consisted of DMEM/F12, non-essential Amino acids (1×NEAA, Gibco 11140050), 10% FBS and 1× pen/strep (Gibco 15140). For the chemotaxis assay, Corning Transwell plates were used with a pore size of 8 m (Corning 351164). Cells were harvested using trypsin and diluted to 4*10^6 cells/ml in chemotaxis medium (DMEM, 0.25% BSA, pen/strep). Compounds were four-fold serially diluted in DMSO. Further dilutions were made in chemotaxis medium. Cells were incubated with test compounds for 30 min at 37° C. prior to initiation of the assay (2*10^6 cells/ml). Final DMSO concentration in the assay was 0.2%. Wells of the Transwell plates were filled with 200 μl chemotaxis medium containing 100 ng/ml CCL20 (R&D systems 360-MP). 50 μl of the cell/compound suspension was added to the inserts of the Transwell plates (100,000 cells/insert). The Transwell plates were placed in an incubator at 37° C., 5% CO2 for 4 h. After 4 h, the number of migrated cells was quantified using CellTiter Glo (Promega). Percentage inhibition values were calculated based on the low and high signal obtained with 0.2% DMSO in chemotaxis medium without and with CCL20, respectively. The relative Log IC50 was determined with GraphPad Prism 9 using a four-parameter dose-response model.

[3] = 293FT cells transfected with human CCR6 and CRE-luciferase, Forskolin + CCL20, 5 h, relative Log IC50, read-out: CCR6-CRE reporter (converted)

| Structure (SMILES) | IC50 (human CCR6 [1]; [3]) [nM] | IC50 (Human CD4+ T cells) [nM] | IC50 (human CCR6 [2]) [nM] | IC50 (human CCR6 [1]; scaffold variant X = S, R1 = CF3, read-out: Activity in human CCR6-CRE reporter assay) [nM] |
| --- | --- | --- | --- | --- |
| N#Cc1ccc(-c2ccc(S(=O)(=O)N3CCC(Nc4ccc(OC(F)(F)F)cc4)CC3)cc2)cc1 [Example 1, 4′-[(4-{[4-(trifluoromethoxy)phenyl]Amino}piperidin-1-yl)sulfonyl]-[1,1′-biphenyl]-4-carbonitrile] | 39.8 | 50.1 | – | – |
| CNC(=O)c1cccc(-c2ccc(S(=O)(=O)N3CCC(Nc4ccc(OC(F)(F)F)cc4)CC3)cc2)c1 [Example 4, N-methyl-4′-[(4-{[4-(trifluoromethoxy)phenyl]Amino}piperidin-1-yl)sulfonyl]-[1,1′-biphenyl]-3-carboxamide] | 100 | 20 | – | – |
| Cc1n[nH]c2ccc(-c3ccc(S(=O)(=O)N4CCC(Nc5ccc(OC(F)(F)F)cc5)CC4)cc3)cc12 [Example 6, 1-[4-(3-methyl-1H-indazol-5-yl)benzenesulfonyl]-N-[4-(trifluoromethoxy)phenyl]piperidin-4-amine] | 126 | 50.1 | – | – |
| N#Cc1c[nH]c2ccc(-c3ccc(S(=O)(=O)N4CCC(Nc5ccc(OC(F)(F)F)cc5)CC4)cc3)cc12 [Example 13, 5-{4-[(4-{[4-(trifluoromethoxy)phenyl]Amino}piperidin-1-yl)sulfonyl]phenyl}-1H-indole-3-carbonitrile] | 79.4 | 10 | – | – |
| O=S(=O)(c1ccc(-c2ccc3nccn3c2)cc1)[C@H]1CC[C@H](Nc2ccc(OC(F)(F)F)cc2)CC1 [Example 43, N-[trans-4-(4-{imidazo[1,2-a]pyridin-6-yl}benzenesulfonyl)cyclohexyl]-4-(trifluoromethoxy)aniline] | 79.4 | – | 79.4 | – |
| N#Cc1c[nH]c2ccc(-c3ccc(S(=O)(=O)[C@H]4CC[C@H](Nc5ccc(SC(F)(F)F)cc5)CC4)cc3)cc12 [Example 44, 5-(4-{[trans-4-({4-[(trifluoromethyl)sulfanyl]phenyl}Amino)cyclohexyl]sulfonyl}phenyl)-1H-indole-3-carbonitrile] | 20 | – | 6.31 | – |
| O=S(=O)(c1ccc(-c2ccc3nccn3c2)cc1)[C@H]1CC[C@H](Nc2cccc(SC(F)(F)F)c2)CC1 [Example 46, N-[trans-4-(4-{imidazo[1,2-a]pyridin-6-yl}benzenesulfonyl)cyclohexyl]-3-[(trifluoromethyl)sulfanyl]aniline] | 63.1 | – | 794 | – |
| CC(C)c1cnc2ccc(-c3ccc(S(=N)(=O)[C@H]4CC[C@H](Nc5ccc(SC(F)(F)F)cc5)CC4)cc3)cn12 (stereo partly drawn) [Example 51, {4-[3-(propan-2-yl)imidazo[1,2-a]pyridin-6-yl]phenyl}[trans-4-({4-[(trifluoromethyl)sulfanyl]phenyl}Amino)cyclohexyl](imino)-λ^6-sulfanone] | 79.4 | – | 794 | – |
| Cc1cc(-c2ccc(S(=O)(=O)N3CCC(Nc4ccc(OC(F)(F)F)cn4)CC3)cc2)cn2c(C(C)C)cnc12 [Example 55, N-(1-{4-[8-methyl-3-(propan-2-yl)imidazo[1,2-a]pyridin-6-yl]benzenesulfonyl}piperidin-4-yl)-5-(trifluoromethoxy)pyridin-2-amine] | 79.4 | – | 2 | – |
| Cc1cc(-c2ccc(S(=O)(=O)N3CCC(Nc4ccc(OC(F)(F)F)cn4)CC3)cc2)cn2c(C(C)C)nnc12 [Example 57, N-(1-{4-[8-methyl-3-(propan-2-yl)-[1,2,4]triazolo[4,3-a]pyridin-6-yl]benzenesulfonyl}piperidin-4-yl)-5-(trifluoromethoxy)pyridin-2-amine] | 39.8 | – | 7.94 | – |
| CC(C)c1nnc2cnc(-c3ccc(S(=O)(=O)N4CCC(Nc5ccc(OC(F)(F)F)cn5)CC4)cc3)cn12 [Example 59, N-(1-{4-[3-(propan-2-yl)-[1,2,4]triazolo[4,3-a]pyrazin-6-yl]benzenesulfonyl}piperidin-4-yl)-5-(trifluoromethoxy)pyridin-2-amine] | 63.1 | – | 7.94 | – |
| NC(=O)c1cc(-c2ccc(S(=O)(=O)N3CCC(Nc4ccc(SC(F)(F)F)cn4)CC3)cc2)ccn1 [Example 63, 4-(4-{[4-({5-[(trifluoromethyl)sulfanyl]pyridin-2-yl}amino)piperidin-1-yl]sulfonyl}phenyl)pyridine-2-carboxamide] | – | – | 15.8 | 74 |
| CC(C)c1nnc2ccc(-c3ccc(S(=O)(=O)N4CCC(Nc5ccc(SC(F)(F)F)cn5)CC4)cc3)cn12 [Example 65, N-(1-{4-[3-(propan-2-yl)-[1,2,4]triazolo[4,3-a]pyridin-6-yl]benzenesulfonyl}piperidin-4-yl)-5-[(trifluoromethyl)sulfanyl]pyridin-2-amine] | 25.1 | 5.01 | – | – |
| CC(C)c1nnc2cnc(-c3ccc(S(=O)(=O)N4CCC(Nc5ccc(SC(F)(F)F)cn5)CC4)cc3)cn12 [Example 66, N-(1-{4-[3-(propan-2-yl)-[1,2,4]triazolo[4,3-a]pyrazin-6-yl]benzenesulfonyl}piperidin-4-yl)-5-[(trifluoromethyl)sulfanyl]pyridin-2-amine] | 31.6 | 1.58 | – | – |
| Cc1nnc2ccc(-c3ccc(S(=O)(=O)N4CCC(Nc5ccc(SC(F)(F)F)cn5)CC4)cc3)cn12 [Example 67, N-[1-(4-{3-methyl-[1,2,4]triazolo[4,3-a]pyridin-6-yl}benzenesulfonyl)piperidin-4-yl]-5-[(trifluoromethyl)sulfanyl]pyridin-2-amine] | 39.8 | 12.6 | – | – |
| Cc1cc(-c2ccc(S(=O)(=O)N3CCC(Nc4ccc(SC(F)(F)F)cn4)CC3)cc2)cn2c(C(C)C)nnc12 [Example 68, N-(1-{4-[8-methyl-3-(propan-2-yl)-[1,2,4]triazolo[4,3-a]pyridin-6-yl]benzenesulfonyl}piperidin-4-yl)-5-[(trifluoromethyl)sulfanyl]pyridin-2-amine] | 63.1 | 2 | – | – |
| Cc1n[nH]c2ncc(-c3ccc(S(=O)(=O)[C@H]4CC[C@H](Nc5ccc(SC(F)(F)F)cc5)CC4)cc3)cc12 [Example 72, N-[trans-4-(4-{3-methyl-1H-pyrazolo[3,4-b]pyridin-5-yl}benzenesulfonyl)cyclohexyl]-4-[(trifluoromethyl)sulfanyl]aniline] | 39.8 | 3.98 | – | – |
